Experimental data published in patent US20050004044A1, “Use of orsaponin [3beta, 16beta, 17 alpha-trihydroxycholost-5-en-22-one 16-0-(2-0-4-methoxybenzoyl-beta-D-xylopyranosyl)-(1->3)-(2-0-acetyl-alpha-L-arabinopyranoside)] or OSW-1 and its derivatives for cancer therapeutics” (priority 2003, published 2005).

Experiments:
[1] = test system: pancreatic cancer (Panco-2) cells; assay: MTT cell growth inhibition, Panco-2; type: cell-based; details: Mus musculus, Panco-2, 72 h
Procedure: (§1) 1. MTT Assays. For these assays either cancer cell lines were used. Alternatively, mononuclear cells from peripheral blood samples of CLL patients or normal donors were separated by Ficoll Hipaque fractionation and resuspended in DMEM complete medium. Malignant cells from various human cell lines (usually at 5×10^4 cells/ml) or mononuclear cells from peripheral blood of leukemia patients and healthy donors (1×10^6 cells/ml) were incubated in either αMEM or RPMI 1640 with or without various concentrations of OSW-1 in the range of 0-10 nM. Each experimental condition was done in triplicate. After the indicated number of days (usually 3 days or 72 hours) of exposure to OSW-1, cell survival was assessed by the addition of the MTT dye to the wells. The MTT dye changes its color depending on the presence of live cells in the well. Survival of cells under orsaponin treatment was evaluated as a percentage of control cell growth. Alternatively, one can also use the dye trypan-blue which penetrates dead cells thereby allowing one to count live cells under the microscope and estimating percentage survival.
(§2) The effect of Orsaponin and 17-deoxyorsaponin in pancreatic cancer cells was also assessed. […] Cell growth inhibition was measured by MTT assay.

[2] = test system: ML-1 leukemia cells; assay: MTT cell growth inhibition, ML-1; type: cell-based, human; details: ML-1, 72 h
Procedure: as §1
(§3) Anticancer activities of Orsaponin and 17-deoxyorsaponin were examined in human leukemia cells (ML-1) and human lymphoma cells (Raji). Cells were incubated with various concentrations of Orsaponin and 17-deoxyorsaponin for 72 h, and cell growth inhibition was measured by MTT assay.
The effect of 17-deoxyorsaponin in human ovarian cancer cells was determined. SKOV3 ovarian cancer cells were incubated with various concentrations of 17-deoxyorsaponin for 72 h. Cell growth inhibition was measured by MTT assay (FIG. 17). […] The effect of 17-deoxyorsaponin in human acute myeloid leukemia cells was also examined. ML-1 leukemia cells were incubated with various concentrations of 17-deoxyorsaponin for 72 h and cell growth inhibition was measured using the MTT assay (FIG. 18).

[3] = test system: HCT116 p53+/+ colon cancer cells; assay: MTT cell growth inhibition, HCT116 p53+/+; type: cell-based; details: Homo sapiens, HCT-116, 72 h
Procedure: as §1
(§4) Anticancer activity of 17-deoxyorsaponin in human colon cancer cells was examined. HCT116 p53+/+ and HCT116 p53−/− human colon cancer cells were incubated with the various concentrations of 17-deoxyorsaponin for 72 h. Cell growth inhibition was measured by MTT assay.

[4] = test system: malignant glioma U87-MG cells; assay: MTT cell growth inhibition, U87-MG glioma; type: cell-based, human; details: U87-MG vs normal human astrocytes
Procedure: as §1
To test the therapeutic selectivity of Orsaponin and 17-deoxyorsaponin, their effect on human brain tumor cells (U87 malignant glioma) and normal human astrocytes were compared. The normal human astrocytes were previously immortalized by transfection with hTER to allow a long-term culture in vitro. The antiproliferative effect of Orsaponin in human malignant glioma cells (U87-MG) and normal human astrocytes was examined. Cells were incubated with various concentrations of Orsaponin for 72 h. Cell growth inhibition was measured by MTT assay (FIG. 21).

[5] = test system: ovarian cancer SKOV3 cells; assay: MTT cell growth inhibition, SKOV3; type: cell-based; details: Homo sapiens, SK-OV-3, SKOV3, 72 h
Procedure: FIG. 5. Effect of Orsaponin (OSW-1) on cell growth in human ovarian cancer cells (SKOV3). Human ovarian cancer SKOV3 cells were treated with the indicated concentrations of OSW-1 for 72 h. Cell growth inhibition was measured by the MTT assay. The IC50 value is approximately 0.2 nM under the experimental conditions.
1. MTT Assays. For these assays either cancer cell lines were used. Alternatively, mononuclear cells from peripheral blood samples of CLL patients or normal donors were separated by Ficoll Hipaque fractionation and resuspended in DMEM complete medium. […] After the indicated number of days (usually 3 days or 72 hours) of exposure to OSW-1, cell survival was assessed by the addition of the MTT dye to the wells. […] Survival of cells under orsaponin treatment was evaluated as a percentage of control cell growth. […]
OSW-1 Inhibits Growth of Ovarian Cancer Cells. […] Human ovarian cancer SKOV3 cells were treated with 0-10 nM OSW-1 for 72 h and cell growth inhibition was measured by the MTT assay.
The effect of 17-deoxyorsaponin in human ovarian cancer cells was determined. […] Cell growth inhibition was measured by MTT assay (FIG. 17). […] ML-1 leukemia cells were incubated with various concentrations of 17-deoxyorsaponin for 72 h and cell growth inhibition was measured using the MTT assay (FIG. 18).

[6] = test system: pancreatic cancer AsPC-1 cells; assay: MTT cell growth inhibition, AsPC-1; type: cell-based, human; details: Homo sapiens, ASPC1, 72 h, AsPC-1, 72 h
Procedure: FIG. 3. Effect of Orsaponin (OSW-1) on cell growth in human pancreatic cancer cells. Human pancreatic cancer AsPC-1 cells were treated with the indicated concentrations of OSW-1 for 72 h or 96 h. Cell growth inhibition was measured by MTT assay.
FIG. 4. The anticancer activity of Orsaponin (OSW-1) is not affected by NFκB expression in pancreatic cancer cells. Human pancreatic cancer cells AsPC-1 with constitutive activation of NFκB or inactivation of NFκB by dominant negative IκBα (AsPC-1/IκBα-ND) were treated with the indicated concentrations of OSW-1 for 72 h. Cell growth inhibition was measured by MTT assay.
Cells and Cell Lines. Various cancer cell lines were used including the human leukemia cell lines HL-60 and ML-1 cells; human lymphoma cell line Raji; human pancreatic cancer cells AsPC-1; and human ovarian cancer cells SKOV3; human colon cancer cells HCT116; as well as isolated CLL cells from patients; and lymphocytes from normal donors. […]
(§5) 1. […] After the indicated number of days (usually 3 days or 72 hours) of exposure to OSW-1, cell survival was assessed by the addition of the MTT dye to the wells. […] Survival of cells under orsaponin treatment was evaluated as a percentage of control cell growth. […]
as §2

[7] = test system: HCT116 p53−/− colon cancer cells; assay: MTT cell growth inhibition, HCT116 p53−/−; type: cell-based; details: Homo sapiens, HCT-116, 72 h
Procedure: as §1, §4

[8] = test system: primary CLL cells; assay: cells; type: cell-based; details: Homo sapiens, CLL cell, CLL cells, median of 11 patient samples; read-out: IC50 (nM), Median
Procedure: FIG. 7. Effect of Orsaponin (OSW-1) on cell survival in primary human leukemia cells isolated from patients with chronic lymphocytic leukemia (CLL). Freshly isolated primary CLL cells were incubated with the indicated concentrations of OSW-1 for 72 hours in vitro. Cell viability was measured by MTT assay. […] Data from representative experiments with CLL cells from three different patients are shown. A total of 23 CLL blood samples were tested for sensitivity to OSW-1 in the same fashion.
as §1
Reduction of Cell Viability in CLL-Patient-Derived Cells. […] Freshly isolated primary CLL cells were incubated with the 0-100 nM OSW-1 for 72 hours in vitro and cell viability was measured by the MTT assay.
Cytotoxic activity of 17-deoxyorsaponin was also assessed in a number of patient samples. Primary human leukemia cells isolated from 11 patients with chronic lymphocytic leukemia (CLL) were analyzed for cytotoxic activity of 17-deoxyorsaponin. […]

[9] = test system: Raji cells (lymphoma); assay: MTT cell growth inhibition, Raji; type: cell-based, human; details: Homo sapiens, 72 h
Procedure: FIG. 2. Effect of Orsaponin (OSW-1) on cell growth in two human cancer cell lines including a leukemia and a lymphoma cell line. HL-60 (leukemia) and Raji cells (lymphoma) in exponentially growing phase were treated with the indicated concentrations of OSW-1 for 72 hours. Cell growth inhibition was measured by MTT assay.
Cells and Cell Lines. Various cancer cell lines were used including the human leukemia cell lines HL-60 and ML-1 cells; human lymphoma cell line Raji; human pancreatic cancer cells AsPC-1; and human ovarian cancer cells SKOV3; human colon cancer cells HCT116; as well as isolated CLL cells from patients; and lymphocytes from normal donors. Cells were grown and maintained as per protocols known in the art using appropriate cell culture media and supplements.
as §5, with “1. MTT Assays. For these assays either cancer cell lines were used.” for “1.”
as §3

Structure (SMILES): COc1ccc(C(=O)OC2C(OC3C(O)COC(O[C@H]4C[C@H]5[C@@H]6CC=C7C[C@@H](O)CC[C@]7(C)[C@H]6CC[C@]5(C)[C@H]4[C@H](C)C(=O)CCC(C)C)C3OC(C)=O)OCC(O)C2O)cc1 (stereo partly shown) [17-deoxyorsaponin]
- IC50 [1]: 0.1 nM
- IC50 ([2]; Homo sapiens, 72 h): < 0.1 nM
- IC50 [2]: ~0.2 nM
- IC50 [3]: ~1 nM
- sensitivity of glioma cells compared with normal astrocytes [4]: more sensitive
- IC50 [5]: ~0.1 nM
- IC50 [6]: 1 nM
- IC50 [7]: ~1 nM
- IC50 [8]: 0.37 nM
- IC50 [9]: < 0.1 nM
